{
  "source": "patent US11590236B2",
  "about": "“Compositions and methods for altering macrophage phenotype” (priority 2019, dated 2023)",
  "test_system": "macrophages differentiated from human peripheral blood monocytes",
  "assay": "Cell death / viability of macrophages after drug exposure",
  "assay_type": "cell-based",
  "conditions": "all concentrations tested",
  "method": "As with Cu(II)-tilmanocept, MT1001.8 was evaluated using macrophages differentiated from human peripheral blood monocytes cultured in supplemented RPMI-1640 medium to which GM-CSF was added. The resulting macrophages were then exposed for 23 hours to MT1001.8 at different concentrations ranging from 0 (controls) to 6.68 μM. Free doxorubicin and the mannosylated dextran construct without the doxorubicin payload were also evaluated as controls. After the 23-hour exposure to the drug construct, the drug containing media were removed and replaced with fresh supplemented RPMI-1640 with GM-CSF and incubated for an additional 72 hours. This final 72-hour incubation in fresh medium was to permit the macrophages to recover from the drug treatment and to manifest any phenotype changes that might have been induced by exposure to the drug construct. All experiments were replicated 5-8 times with peripheral blood monocytes obtained from 5 separate donors. After the last 72-hour incubation, the media were collected and analyzed for their concentrations of various cytokines.",
  "data": [
    {"molecule": "COc1cccc2c1C(=O)c1c(O)c3c(c(O)c1C2=O)C[C@@](O)(C(=O)CO)C[C@@H]3O[C@H]1C[C@H](N)[C@H](O)[C@H](C)O1", "note": "[free doxorubicin, doxorubicin]", "values": [
      {"measurement": "cell death", "result": "high levels of cell death"}
    ]}
  ]
}
